These results are taken from US20140228418A1, “COMBINATION THERAPY OF HSP90 INHIBITORY COMPOUNDS WITH MEK INHIBITORS” (Synta Pharmaceuticals Corp., priority 2011, published 2014).

Holding throughout (type): cell-based, Human
For assay [1], the system named is H1666 NSCLC (BRAFG466V mutant). The assay can be described thus: Cell viability (Cell Titer-Glo) in H1666 NSCLC cells, single agents and combination. As to conditions: FIG. 5. The protocol:
(§1) Human H1666 NSCLC (BRAFG466V mutant) and A375 melanoma cells (BRAFV600E mutant) were purchased from the American Type Culture Collection (Manassas, Va.) and grown in RPMI or DMEM, respectively, in the presence of fetal bovine serum (10%), 2 mM L-glutamine and antibiotics (100 IU/ml penicillin and 100 μg/ml streptomycin) purchased from Sigma Aldrich. Cells were maintained at 37° C., 5% CO2 atmosphere.
(§2) Cell viability was measured using the Cell Titer-Glo assay (Promega). In brief, cells were plated in 96-well plates in triplicate at optimal seeding density (determined empirically for each cell line) and incubated at 37° C., 5% CO2 atmosphere for 24 hr prior to the addition of drug or vehicle (0.3% DMSO) to the culture medium. At the end of the assay, Cell Titer-Glow was added to the wells per manufactures recommendation, shaken for two minutes and incubated for 10 minutes at room temperature. Luminescence (0.1 sec) was measured with a Victor II microplate reader (Perkin Elmer) and the resulting data were used to calculate cell viability, normalized to vehicle control.
The combination of ganetespib and AZD6244 was performed in the NSCLC cell line H1666. Similar to A375 cells, the combination of both compounds yielded greater anticancer activity than monotherapy. […]

The test system of assay [2] is A375 melanoma cells (BRAFV600E mutant). The assay can be described thus: Cell viability (Cell Titer-Glo) in A375 melanoma cells, single agents and matrix combination. As to conditions: for cells killed / concentration that killed 100% of the cells: 72 hr; for cells killed: FIG. 3; for concentration that killed 100% of the cells: FIG. 2; for IC50: Homo sapiens, A-375, 72 hr, FIG. 2, read-out: concentration that killed 50% of the cells. The method, then:
as §1, §2
Matrix style combinations between AZD6244 and Ganetespib were performed in A375 melanoma cells. Cells were exposed to AZD6244, ganetespib or the combination of the two concurrently for 72 hr and viability was assessed.
Combination Index (CI) was then determined using the median effect analysis software CalcuSyn 2.0 (CalcuSyn, Inc.). A Combination Index greater than one, equal to one or less than one indicates antagonism, additivity and synergism, respectively.

For a further assay, the system named is ERK. The assay can be described thus: Western blotting of MAPK pathway analytes in A375 cells treated for 24 hr. As to conditions: A375 melanoma cells with constitutively activated MAPK, FIG. 1. The protocol: as §1
Cells, treated with compound for 24 hr, were lysed in RIPA buffer (CST, Danvers, Mass., USA) on ice and clarified by centrifugation. Equal amounts of proteins were resolved by SDS-PAGE and immunoblotted with indicated antibodies. The antigen-antibody complex was visualized and quantitated using an Odyssey system (LI-COR, Lincoln, Nebr., USA).
The mitogen-activated protein kinase (MAPK) signal transduction cascade is dysregulated in a majority of human tumors.

As to `Cn1cnc2c(F)c(Nc3ccc(Br)cc3Cl)c(C(=O)NOCCO)cc21` [AZD6244, 6-(4-bromo-2-chloro-phenylamino)-7-fluoro-3-methyl-3H-benzoimidazole-5-carboxylic acid (2-hydroxy-ethoxy)-amide], in assay [1] (AZD6244 118 nM alone), the cells killed entry is listed as “approximately 50%”. Further, in assay [2] (AZD6244 24 nM alone), the cells killed was 10%. Besides, in assay [2], the “concentration that killed 100% of the cells” value is given as 228 nM and the IC50 is 65 nM. Besides, in the assay with ERK, the “disruption of activation of the MEK substrate ERK / abrogation of ERK activity (western blot)” value is “highly effective”.

On to `CC(C)c1cc(-c2nnc(O)n2-c2ccc3c(ccn3C)c2)c(O)cc1O` [ganetespib, 3-(2,4-dihydroxy-5-isopropyl-phenyl)-4-(1-methyl-indol-5-yl)-5-hydroxy-[1,2,4] triazole], for which the cells killed entry in assay [1] (ganetespib 68 nM alone) is “approximately 50%”. For the same molecule, in assay [2], the “concentration that killed 100% of the cells” value is recorded as 35 nM and the IC50 worked out at 15 nM. The cells killed in assay [2] (ganetespib 30 nM alone) is reported as 20%. For the same molecule, the “disruption of activation of the MEK substrate ERK / abrogation of ERK activity (western blot)” value in the assay on ERK is “highly effective”.
